Assay results as given in PubChem BioAssay AID330 (DTP/NCI, 2004).
Where “and” joins values, the source holds several entries; their conditions need not be identical. Identical values can stand only once. Inconclusive results and toxic doses are left out.

Tested on: P388 leukemia ip, CD2F1 mice, survival T/C
Experiment: NCI In Vivo Anticancer Drug Screen. Data for tumor model P388 Leukemia (intraperitoneal) in CD2F1 (CDF1) mice
Settings: endpoint: median survival time, higher = longer survival
Summary of the method: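 Mice carrying the transplanted tumor received test compound or vehicle. Survival was recorded in each group, and the value is the treated-group measurement divided by that of the vehicle-treated control group.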

[1] = dose: 60.0 mg/kg/injection, schedule: Q01DX005 (ip), vehicle: saline with Tween-80
[2] = dose: 120.0 mg/kg/injection, schedule: Q01DX005 (ip), vehicle: saline with Tween-80
[3] = dose: 3.13 mg/kg/injection, schedule: Q01DX009 (ip), vehicle: saline with Tween-80
[4] = dose: 6.25 mg/kg/injection, schedule: Q01DX009 (ip), vehicle: saline with Tween-80
[5] = dose: 12.5 mg/kg/injection, schedule: Q01DX009 (ip), vehicle: saline with Tween-80
[6] = dose: 100.0 mg/kg/injection, schedule: Q04DX002 (ip), vehicle: saline with Tween-80
[7] = dose: 25.0 mg/kg/injection, schedule: Q04DX002 (ip), vehicle: saline with Tween-80
[8] = dose: 50.0 mg/kg/injection, schedule: Q04DX002 (ip), vehicle: saline with Tween-80
[9] = dose: 60.0 mg/kg/injection, schedule: Q01DX005 (ip), vehicle: Klucel (hydroxypropylcellulose) (HPC)
[10] = dose: 120.0 mg/kg/injection, schedule: Q01DX005 (ip), vehicle: Klucel (hydroxypropylcellulose) (HPC)
[11] = dose: 240.0 mg/kg/injection, schedule: Q01DX005 (ip), vehicle: Klucel (hydroxypropylcellulose) (HPC)
[12] = dose: 50.0 mg/kg/injection, schedule: Q01DX009 (ip), vehicle: suspension in saline
[13] = dose: 100.0 mg/kg/injection, schedule: Q01DX009 (ip), vehicle: suspension in saline
[14] = dose: 50.0 mg/kg/injection, schedule: Q01DX005 (ip), vehicle: saline with Tween-80
[15] = dose: 100.0 mg/kg/injection, schedule: Q01DX005 (ip), vehicle: saline with Tween-80
[16] = dose: 200.0 mg/kg/injection, schedule: Q01DX005 (ip), vehicle: saline with Tween-80
[17] = dose: 50.0 mg/kg/injection, schedule: Q01DX005 (ip), vehicle: Klucel (hydroxypropylcellulose) (HPC)
[18] = dose: 100.0 mg/kg/injection, schedule: Q01DX005 (ip), vehicle: Klucel (hydroxypropylcellulose) (HPC)
[19] = dose: 200.0 mg/kg/injection, schedule: Q01DX005 (ip), vehicle: Klucel (hydroxypropylcellulose) (HPC)

SMILES: c1ccc2c3c(ccc2c1)-c1ccc2ccccc2c1OP1(=NP(N2CC2)(N2CC2)=NP(N2CC2)(N2CC2)=N1)O3
- T/C (dose: 100.0 mg/kg/injection, schedule: Q04DX002 (ip), vehicle: Klucel (hydroxypropylcellulose) (HPC)): 100 % of control
- T/C (dose: 200.0 mg/kg/injection, schedule: Q04DX002 (ip), vehicle: Klucel (hydroxypropylcellulose) (HPC)): 99 % of control
- T/C (dose: 400.0 mg/kg/injection, schedule: Q04DX002 (ip), vehicle: Klucel (hydroxypropylcellulose) (HPC)): 103 % of control

SMILES: CSC(SC)c1cc(-c2c(Cl)cccc2Cl)no1
- T/C [1]: 102 % of control
- T/C [2]: 103 % of control
- T/C (dose: 240.0 mg/kg/injection, schedule: Q01DX005 (ip), vehicle: saline with Tween-80): 103 % of control

SMILES: NC(=O)C[n+]1ccccc1
- T/C (dose: 50.0 mg/kg/injection, schedule: Q01DX009 (ip), vehicle: saline): 101 % of control
- T/C (dose: 100.0 mg/kg/injection, schedule: Q01DX009 (ip), vehicle: saline): 111 % of control
- T/C (dose: 200.0 mg/kg/injection, schedule: Q01DX009 (ip), vehicle: saline): 118 % of control
- T/C (dose: 400.0 mg/kg/injection, schedule: Q01DX009 (ip), vehicle: saline): 112 % of control

SMILES: CN(CCN(C)C(=S)SCc1ccccc1)C(=S)SCc1ccccc1
- T/C (dose: 6.25 mg/kg/injection, schedule: Q01DX009 (ip), vehicle: Klucel (hydroxypropylcellulose) (HPC)): 100 % of control
- T/C (dose: 12.5 mg/kg/injection, schedule: Q01DX009 (ip), vehicle: Klucel (hydroxypropylcellulose) (HPC)): 116 % of control
- T/C (dose: 25.0 mg/kg/injection, schedule: Q01DX009 (ip), vehicle: Klucel (hydroxypropylcellulose) (HPC)): 105 % of control

SMILES: N#C/C(=C\c1c(Cl)cccc1Cl)c1nc2ccccc2[nH]1
- T/C (dose: 50.0 mg/kg/injection, schedule: Q01DX009 (ip), vehicle: Klucel (hydroxypropylcellulose) (HPC)): 115 % of control
- T/C (dose: 100.0 mg/kg/injection, schedule: Q01DX009 (ip), vehicle: Klucel (hydroxypropylcellulose) (HPC)): 103 % of control
- T/C (dose: 200.0 mg/kg/injection, schedule: Q01DX009 (ip), vehicle: Klucel (hydroxypropylcellulose) (HPC)): 112 % of control

SMILES: CC1(C)COC(c2ccc(C(C)(C)C)cc2)=N1
- T/C [3]: 105 % of control
- T/C [4]: 105 % of control
- T/C [5]: 98 % of control

SMILES: COC(=O)C1(c2ccccc2)N=C1N(C)C (stereo not drawn)
- T/C [6]: 94 % of control
- T/C (dose: 200.0 mg/kg/injection, schedule: Q04DX002 (ip), vehicle: saline with Tween-80): 94 % of control
- T/C (dose: 400.0 mg/kg/injection, schedule: Q04DX002 (ip), vehicle: saline with Tween-80): 102 % of control

SMILES: Cc1cc(Cl)nc2c1ccn2C1OC(CO)C(O)C1O (stereo not drawn)
- T/C (dose: 32.0 mg/kg/injection, schedule: Q01DX001 (ip), vehicle: saline): 100 % of control
- T/C (dose: 64.0 mg/kg/injection, schedule: Q01DX001 (ip), vehicle: saline): 100 % of control
- T/C (dose: 128.0 mg/kg/injection, schedule: Q01DX001 (ip), vehicle: saline): 102 % of control

SMILES: COC1=C(C)C(=O)c2c(c(COC(N)=O)c3n2CC2C3N2C)C1=O (stereo not drawn)
- T/C (dose: 6.25 mg/kg/injection, schedule: Q04DX003 (ip), vehicle: saline with Tween-80): 100 % of control
- T/C (dose: 12.5 mg/kg/injection, schedule: Q04DX003 (ip), vehicle: saline with Tween-80): 90 % of control

SMILES: CSC1SC(C#N)=C(N)C1[n+]1ccccc1 (stereo not drawn)
- T/C [7]: 105 % of control
- T/C [8]: 105 % of control
- T/C [6]: 104 % of control

SMILES: [CH3][Ge]1([CH3])[CH2]C(c2ccccc2)C(c2ccccc2)[CH2]1 (stereo not drawn)
- T/C [9]: 100 % of control
- T/C [10]: 97 % of control
- T/C [11]: 98 % of control

SMILES: COc1ccc(C(=O)C(CN(C)C)CN(C)C)c(OC)c1
- T/C (dose: 7.5 mg/kg/injection, schedule: Q01DX005 (ip), vehicle: saline): 121 % of control
- T/C (dose: 15.0 mg/kg/injection, schedule: Q01DX005 (ip), vehicle: saline): 108 % of control

SMILES: Fc1ccc(NC(=S)SCc2ccco2)cc1
- T/C [12]: 101 % of control
- T/C [13]: 98 % of control
- T/C (dose: 200.0 mg/kg/injection, schedule: Q01DX009 (ip), vehicle: suspension in saline): 92 % of control

SMILES: CCN(CC)CCNc1ccc([N+](=O)[O-])c2sc3cc(Cl)ccc3c(=O)c12
- T/C [14]: 100 % of control
- T/C [15]: 104 % of control
- T/C [16]: 102 % of control

SMILES: COC(=O)CC(c1ccc(OC)cc1)c1cc2c(cc1OC)OCO2 (stereo not drawn)
- T/C (dose: 50.0 mg/kg/injection, schedule: Q01DX005 (ip), vehicle: distilled water + Tween-80): 97 % of control
- T/C (dose: 100.0 mg/kg/injection, schedule: Q01DX005 (ip), vehicle: distilled water + Tween-80): 97 % of control
- T/C (dose: 200.0 mg/kg/injection, schedule: Q01DX005 (ip), vehicle: distilled water + Tween-80): 97 % of control

SMILES: CCCCCCCCCCCCCCCC[N+](C)(C)CCBr
- T/C [3]: 109 % of control and 100 % of control
- T/C [4]: 122 % of control and 93 % of control and 103 % of control
- T/C [5]: 115 % of control [middle of 4 runs]

SMILES: CN1c2ccccc2C(=O)N2C(=O)CCC21C (stereo not drawn)
- T/C [1]: 102 % of control
- T/C [2]: 88 % of control

SMILES: Cc1ccc2[nH]c(=O)oc2c1
- T/C [7]: 90 % of control
- T/C [8]: 101 % of control

SMILES: COc1ccc([B-]23OCC[N+]2(CNC(=O)C2=C(O)C4(O)C(=O)C5=C(O)c6c(O)cccc6C(C)(O)C5CC4C(N(C)C)C2=O)CCO3)cc1 (stereo not drawn)
- T/C [17]: 105 % of control
- T/C [18]: 105 % of control
- T/C [19]: 105 % of control

SMILES: CCOC(=O)c1ccc(N)[n+](C2OC(COC(=O)c3ccccc3)C(OC(=O)c3ccccc3)C2OC(=O)c2ccccc2)c1 (stereo not drawn)
- T/C [14]: 92 % of control
- T/C [15]: 107 % of control
- T/C [16]: 112 % of control

SMILES: CCOC(=O)C/C(O)=C(\N=Nc1nc[nH]c1C(N)=O)C(=O)OCC
- T/C [14]: 105 % of control
- T/C [15]: 91 % of control
- T/C [16]: 97 % of control

SMILES: CCOC(=O)/C=C/C(F)(F)C(F)(F)C(F)(F)C(F)(F)C(F)(F)C(F)(F)C(F)(F)F
- T/C (dose: 100.0 mg/kg/injection, schedule: Q04DX003 (ip), vehicle: saline): 100 % of control
- T/C (dose: 200.0 mg/kg/injection, schedule: Q04DX003 (ip), vehicle: saline): 100 % of control
- T/C (dose: 400.0 mg/kg/injection, schedule: Q04DX003 (ip), vehicle: saline): 100 % of control

SMILES: O=C1NNC=Nc2nc3c(cc21)CCCC3
- T/C [9]: 98 % of control
- T/C [10]: 92 % of control
- T/C [11]: 94 % of control

SMILES: Clc1ncn[nH]1
- T/C (dose: 100.0 mg/kg/injection, schedule: Q01DX001 (ip), vehicle: Klucel (hydroxypropylcellulose) (HPC)): 99 % of control
- T/C (dose: 200.0 mg/kg/injection, schedule: Q01DX001 (ip), vehicle: Klucel (hydroxypropylcellulose) (HPC)): 106 % of control
- T/C (dose: 400.0 mg/kg/injection, schedule: Q01DX001 (ip), vehicle: Klucel (hydroxypropylcellulose) (HPC)): 122 % of control

SMILES: CC(=O)c1c(O)c(C)cc2c1CCc1ccc(O)c(C)c1-2
- T/C (dose: 2.0 mg/kg/injection, schedule: Q01DX009 (ip), vehicle: Klucel (hydroxypropylcellulose) (HPC)): 116 % of control
- T/C (dose: 4.0 mg/kg/injection, schedule: Q01DX009 (ip), vehicle: Klucel (hydroxypropylcellulose) (HPC)): 100 % of control
- T/C (dose: 8.0 mg/kg/injection, schedule: Q01DX009 (ip), vehicle: Klucel (hydroxypropylcellulose) (HPC)): 107 % of control
- T/C (dose: 16.0 mg/kg/injection, schedule: Q01DX009 (ip), vehicle: Klucel (hydroxypropylcellulose) (HPC)): 108 % of control

SMILES: Cc1cc(N2C(=O)CSC2=S)c([N+](=O)[O-])cc1C
- T/C [12]: 91 % of control
- T/C [13]: 89 % of control

SMILES: CCCCCCN(CCCCCC)P(=O)(N1CC1C)N1CC1C (stereo not drawn)
- T/C [5]: 122 % of control
- T/C (dose: 12.5 mg/kg/injection, schedule: Q04DX003 (ip), vehicle: saline): 95 % of control
- T/C (dose: 25.0 mg/kg/injection, schedule: Q01DX009 (ip), vehicle: saline with Tween-80): 118 % of control
- T/C (dose: 25.0 mg/kg/injection, schedule: Q04DX003 (ip), vehicle: saline): 95 % of control
- T/C (dose: 50.0 mg/kg/injection, schedule: Q04DX003 (ip), vehicle: saline): 95 % of control

SMILES: O=C1Cc2ccccc2C2(CCCCC2)O1
- T/C [17]: 100 % of control
- T/C [18]: 98 % of control
- T/C [19]: 100 % of control
